From ChEMBL document CHEMBL4507269, “Data for DCP probe BAY-386” (2021)
Activity calls are given as the source filed them. No cut-off for these calls is given here.

How the values were obtained:
[1] = molecular target: T1, Alpha-1A adrenergic receptor (Homo sapiens) (UniProt P35348); test: alpha1A (h) Eurofins-Cerep Cellular and Nuclear Receptor Functional Assays; settings: Compound concentration 10.0 uM
T1 sequence (whole entry): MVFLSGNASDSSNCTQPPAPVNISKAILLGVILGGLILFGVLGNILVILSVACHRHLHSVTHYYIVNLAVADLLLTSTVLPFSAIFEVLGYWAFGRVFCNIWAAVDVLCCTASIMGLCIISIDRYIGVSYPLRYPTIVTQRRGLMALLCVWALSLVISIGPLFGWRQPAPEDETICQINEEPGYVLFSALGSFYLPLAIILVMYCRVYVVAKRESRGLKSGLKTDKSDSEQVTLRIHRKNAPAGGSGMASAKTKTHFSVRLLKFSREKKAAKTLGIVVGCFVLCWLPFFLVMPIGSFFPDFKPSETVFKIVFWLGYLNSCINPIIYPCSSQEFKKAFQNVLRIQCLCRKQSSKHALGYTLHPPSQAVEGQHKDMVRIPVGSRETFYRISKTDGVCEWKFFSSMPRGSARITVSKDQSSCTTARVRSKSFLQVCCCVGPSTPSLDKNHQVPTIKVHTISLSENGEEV

[2] = molecular target: Mitogen-activated protein kinase 12 (Homo sapiens) (UniProt P53778); settings: Compound concentration 1000.0 nM
Mitogen-activated protein kinase 12 (Homo sapiens), sequence (P53778 whole entry): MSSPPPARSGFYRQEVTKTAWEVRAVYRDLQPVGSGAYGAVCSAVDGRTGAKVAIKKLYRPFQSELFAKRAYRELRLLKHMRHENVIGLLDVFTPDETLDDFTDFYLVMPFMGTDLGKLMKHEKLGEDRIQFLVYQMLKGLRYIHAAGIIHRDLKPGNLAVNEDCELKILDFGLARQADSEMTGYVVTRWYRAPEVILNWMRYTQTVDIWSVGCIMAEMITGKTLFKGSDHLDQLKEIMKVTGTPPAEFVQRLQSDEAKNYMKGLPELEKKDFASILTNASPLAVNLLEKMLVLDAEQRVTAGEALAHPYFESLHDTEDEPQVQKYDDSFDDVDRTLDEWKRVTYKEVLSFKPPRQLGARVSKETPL

[3] = molecular target: Serine/threonine-protein kinase MARK2 (Homo sapiens) (UniProt Q7KZI7); settings: Compound concentration 1000.0 nM
Serine/threonine-protein kinase MARK2 (Homo sapiens), sequence (Q7KZI7 whole entry): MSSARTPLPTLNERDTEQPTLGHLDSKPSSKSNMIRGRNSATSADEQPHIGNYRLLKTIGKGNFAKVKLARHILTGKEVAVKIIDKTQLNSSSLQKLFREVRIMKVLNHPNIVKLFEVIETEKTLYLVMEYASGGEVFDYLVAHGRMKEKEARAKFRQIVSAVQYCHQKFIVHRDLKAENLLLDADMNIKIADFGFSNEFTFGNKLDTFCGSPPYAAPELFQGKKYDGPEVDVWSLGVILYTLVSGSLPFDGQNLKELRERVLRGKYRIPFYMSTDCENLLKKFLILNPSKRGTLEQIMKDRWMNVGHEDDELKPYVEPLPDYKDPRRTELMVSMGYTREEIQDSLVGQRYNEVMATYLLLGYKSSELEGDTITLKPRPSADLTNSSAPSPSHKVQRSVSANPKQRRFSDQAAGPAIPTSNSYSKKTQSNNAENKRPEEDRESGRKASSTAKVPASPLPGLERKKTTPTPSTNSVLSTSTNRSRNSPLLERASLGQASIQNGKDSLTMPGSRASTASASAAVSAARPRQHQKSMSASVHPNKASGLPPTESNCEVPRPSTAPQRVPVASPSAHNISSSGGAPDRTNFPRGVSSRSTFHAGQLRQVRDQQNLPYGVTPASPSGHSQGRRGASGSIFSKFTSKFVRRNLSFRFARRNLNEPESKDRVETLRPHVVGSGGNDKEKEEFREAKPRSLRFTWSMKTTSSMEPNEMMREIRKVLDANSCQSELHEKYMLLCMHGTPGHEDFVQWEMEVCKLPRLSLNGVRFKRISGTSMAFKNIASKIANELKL

[4] = molecular target: Bone morphogenetic protein receptor type-1A (Homo sapiens) (UniProt P36894); settings: Compound concentration 1000.0 nM
[5] = molecular target: Dual specificity protein kinase CLK3 (Homo sapiens) (UniProt P49761); settings: Compound concentration 1000.0 nM
Dual specificity protein kinase CLK3 (Homo sapiens), sequence (P49761 whole entry, looked up): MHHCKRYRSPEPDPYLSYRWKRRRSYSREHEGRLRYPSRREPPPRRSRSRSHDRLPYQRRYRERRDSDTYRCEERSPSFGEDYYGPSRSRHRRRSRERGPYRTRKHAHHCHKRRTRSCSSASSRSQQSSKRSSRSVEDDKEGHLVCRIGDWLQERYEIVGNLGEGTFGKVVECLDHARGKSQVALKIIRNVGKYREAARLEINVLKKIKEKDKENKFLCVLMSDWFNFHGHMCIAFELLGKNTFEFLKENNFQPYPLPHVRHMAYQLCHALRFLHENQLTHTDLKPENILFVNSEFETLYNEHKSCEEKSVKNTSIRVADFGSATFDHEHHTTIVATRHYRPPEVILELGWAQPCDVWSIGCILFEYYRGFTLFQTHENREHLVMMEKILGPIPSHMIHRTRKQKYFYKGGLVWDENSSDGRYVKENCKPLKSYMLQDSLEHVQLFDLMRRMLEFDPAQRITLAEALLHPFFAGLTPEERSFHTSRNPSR

[6] = molecular target: Calcium-dependent protein kinase 1 (Plasmodium falciparum) (UniProt P62344); settings: Compound concentration 1000.0 nM
Calcium-dependent protein kinase 1 (Plasmodium falciparum), sequence (P62344 2-524 limits assumed): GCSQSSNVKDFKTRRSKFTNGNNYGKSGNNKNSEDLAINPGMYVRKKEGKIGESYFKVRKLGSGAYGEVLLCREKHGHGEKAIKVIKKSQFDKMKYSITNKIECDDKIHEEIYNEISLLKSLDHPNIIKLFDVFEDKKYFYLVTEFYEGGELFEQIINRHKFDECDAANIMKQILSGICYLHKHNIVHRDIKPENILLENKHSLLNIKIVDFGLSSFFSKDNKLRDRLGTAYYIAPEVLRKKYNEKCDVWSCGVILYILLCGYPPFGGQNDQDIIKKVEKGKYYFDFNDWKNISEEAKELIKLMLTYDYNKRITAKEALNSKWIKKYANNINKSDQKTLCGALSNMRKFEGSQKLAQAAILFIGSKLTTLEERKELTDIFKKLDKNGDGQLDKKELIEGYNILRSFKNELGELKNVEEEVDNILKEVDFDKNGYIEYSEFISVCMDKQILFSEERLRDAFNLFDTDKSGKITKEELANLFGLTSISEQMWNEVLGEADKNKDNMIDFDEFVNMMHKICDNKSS

[7] = molecular target: Cyclin-dependent kinase 4 (Homo sapiens) (UniProt P11802); settings: Compound concentration 1000.0 nM
Cyclin-dependent kinase 4 (Homo sapiens), sequence (P11802 whole entry): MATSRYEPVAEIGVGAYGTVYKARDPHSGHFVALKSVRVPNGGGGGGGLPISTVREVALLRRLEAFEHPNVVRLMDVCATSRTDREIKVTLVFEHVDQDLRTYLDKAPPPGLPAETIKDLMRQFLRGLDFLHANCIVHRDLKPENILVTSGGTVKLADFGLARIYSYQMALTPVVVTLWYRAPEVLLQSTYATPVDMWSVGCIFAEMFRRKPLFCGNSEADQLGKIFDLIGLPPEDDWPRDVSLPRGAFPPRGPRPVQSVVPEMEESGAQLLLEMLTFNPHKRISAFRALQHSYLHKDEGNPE

[8] = molecular target: 5-hydroxytryptamine receptor 2B (Homo sapiens) (UniProt P41595); settings: Compound concentration 10.0 uM
5-hydroxytryptamine receptor 2B (Homo sapiens), sequence (P41595 whole entry): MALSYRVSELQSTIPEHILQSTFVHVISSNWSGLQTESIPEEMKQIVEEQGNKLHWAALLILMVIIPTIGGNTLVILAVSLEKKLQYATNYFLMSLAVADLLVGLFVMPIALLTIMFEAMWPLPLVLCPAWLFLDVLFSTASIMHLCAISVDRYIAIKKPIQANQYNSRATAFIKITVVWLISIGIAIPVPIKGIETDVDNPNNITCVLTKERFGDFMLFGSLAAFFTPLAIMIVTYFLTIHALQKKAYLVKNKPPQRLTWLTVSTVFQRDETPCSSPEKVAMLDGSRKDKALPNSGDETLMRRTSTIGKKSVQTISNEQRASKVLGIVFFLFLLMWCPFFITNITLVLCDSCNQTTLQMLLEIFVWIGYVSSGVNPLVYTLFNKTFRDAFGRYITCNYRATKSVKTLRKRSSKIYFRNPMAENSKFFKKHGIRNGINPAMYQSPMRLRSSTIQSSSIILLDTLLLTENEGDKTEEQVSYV

[9] = molecular target: Serine/threonine-protein kinase RIO1 (Homo sapiens) (UniProt Q9BRS2); settings: Compound concentration 1000.0 nM
Serine/threonine-protein kinase RIO1 (Homo sapiens), sequence (Q9BRS2 whole entry): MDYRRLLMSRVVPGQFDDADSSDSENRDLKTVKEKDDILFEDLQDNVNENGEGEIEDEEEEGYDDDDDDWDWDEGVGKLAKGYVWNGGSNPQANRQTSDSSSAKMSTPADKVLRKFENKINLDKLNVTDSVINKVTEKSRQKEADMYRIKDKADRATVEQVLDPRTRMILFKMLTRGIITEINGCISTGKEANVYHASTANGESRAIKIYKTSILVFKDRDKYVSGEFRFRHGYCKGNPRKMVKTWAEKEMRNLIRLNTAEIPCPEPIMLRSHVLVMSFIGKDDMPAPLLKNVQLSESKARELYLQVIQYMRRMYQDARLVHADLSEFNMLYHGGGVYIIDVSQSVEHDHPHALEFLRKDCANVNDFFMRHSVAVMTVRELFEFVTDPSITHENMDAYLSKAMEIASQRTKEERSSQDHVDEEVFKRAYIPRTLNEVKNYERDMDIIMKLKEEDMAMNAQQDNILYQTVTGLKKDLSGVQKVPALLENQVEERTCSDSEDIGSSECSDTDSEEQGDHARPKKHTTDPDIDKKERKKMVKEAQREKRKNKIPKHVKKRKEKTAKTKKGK

[10] = molecular target: Calcium/calmodulin-dependent protein kinase type II subunit beta (Homo sapiens) (UniProt Q13554); settings: Compound concentration 1000.0 nM
[11] = molecular target: Cyclin-dependent kinase 14 (Homo sapiens) (UniProt O94921); settings: Compound concentration 1000.0 nM
Cyclin-dependent kinase 14 (Homo sapiens), sequence (O94921 whole entry): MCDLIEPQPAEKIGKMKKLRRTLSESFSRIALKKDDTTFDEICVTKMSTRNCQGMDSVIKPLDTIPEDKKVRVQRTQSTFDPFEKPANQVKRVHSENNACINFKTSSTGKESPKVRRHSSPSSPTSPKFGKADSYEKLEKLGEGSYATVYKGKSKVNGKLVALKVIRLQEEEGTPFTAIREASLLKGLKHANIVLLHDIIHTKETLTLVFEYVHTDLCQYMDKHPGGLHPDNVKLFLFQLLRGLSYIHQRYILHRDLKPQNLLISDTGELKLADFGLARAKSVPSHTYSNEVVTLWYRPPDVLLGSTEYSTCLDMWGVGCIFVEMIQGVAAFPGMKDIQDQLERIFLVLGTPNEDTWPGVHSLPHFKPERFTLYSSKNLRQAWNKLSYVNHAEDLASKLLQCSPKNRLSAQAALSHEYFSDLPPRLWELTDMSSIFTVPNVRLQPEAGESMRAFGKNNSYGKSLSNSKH

[12] = molecular target: Platelet-derived growth factor receptor beta (Homo sapiens) (UniProt P09619); settings: Compound concentration 1000.0 nM
[13] = molecular target: T2, Alpha-1D adrenergic receptor (Homo sapiens) (UniProt P25100); settings: Compound concentration 10.0 uM
T2 sequence (whole entry): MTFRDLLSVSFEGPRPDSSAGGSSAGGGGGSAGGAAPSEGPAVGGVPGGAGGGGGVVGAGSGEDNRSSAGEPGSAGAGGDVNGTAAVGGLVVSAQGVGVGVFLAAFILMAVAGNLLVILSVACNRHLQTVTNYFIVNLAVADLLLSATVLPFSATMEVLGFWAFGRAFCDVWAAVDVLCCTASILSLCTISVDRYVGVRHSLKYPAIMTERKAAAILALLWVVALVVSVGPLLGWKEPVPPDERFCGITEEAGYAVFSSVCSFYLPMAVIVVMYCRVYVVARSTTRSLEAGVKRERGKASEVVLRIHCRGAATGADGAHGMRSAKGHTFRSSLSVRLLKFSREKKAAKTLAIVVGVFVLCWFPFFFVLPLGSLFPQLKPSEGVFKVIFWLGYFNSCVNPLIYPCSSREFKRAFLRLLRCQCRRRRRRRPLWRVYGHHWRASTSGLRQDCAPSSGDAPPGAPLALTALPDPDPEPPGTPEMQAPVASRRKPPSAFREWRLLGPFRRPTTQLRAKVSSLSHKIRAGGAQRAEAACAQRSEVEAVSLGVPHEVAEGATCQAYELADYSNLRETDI

[14] = molecular target: T3, Proteinase-activated receptor 1 (Homo sapiens, UniProt P25116); test: Functional cellular assay (HEK cells) (F2R)
T3 sequence (P25116 whole entry): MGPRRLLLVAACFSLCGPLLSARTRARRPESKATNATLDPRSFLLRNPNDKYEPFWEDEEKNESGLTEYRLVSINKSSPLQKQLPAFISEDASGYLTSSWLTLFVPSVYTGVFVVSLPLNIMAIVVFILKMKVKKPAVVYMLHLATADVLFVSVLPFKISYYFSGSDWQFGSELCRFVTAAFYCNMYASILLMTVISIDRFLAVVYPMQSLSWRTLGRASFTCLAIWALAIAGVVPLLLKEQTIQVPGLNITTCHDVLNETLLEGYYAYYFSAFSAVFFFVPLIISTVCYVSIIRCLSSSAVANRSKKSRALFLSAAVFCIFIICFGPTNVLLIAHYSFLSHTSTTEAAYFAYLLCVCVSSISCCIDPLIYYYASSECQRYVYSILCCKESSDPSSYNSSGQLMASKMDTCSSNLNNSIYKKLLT

[15] = molecular target: Serine/threonine-protein kinase NIM1 (Homo sapiens) (UniProt Q8IY84); settings: Compound concentration 1000.0 nM
Serine/threonine-protein kinase NIM1 (Homo sapiens), sequence (Q8IY84 whole entry): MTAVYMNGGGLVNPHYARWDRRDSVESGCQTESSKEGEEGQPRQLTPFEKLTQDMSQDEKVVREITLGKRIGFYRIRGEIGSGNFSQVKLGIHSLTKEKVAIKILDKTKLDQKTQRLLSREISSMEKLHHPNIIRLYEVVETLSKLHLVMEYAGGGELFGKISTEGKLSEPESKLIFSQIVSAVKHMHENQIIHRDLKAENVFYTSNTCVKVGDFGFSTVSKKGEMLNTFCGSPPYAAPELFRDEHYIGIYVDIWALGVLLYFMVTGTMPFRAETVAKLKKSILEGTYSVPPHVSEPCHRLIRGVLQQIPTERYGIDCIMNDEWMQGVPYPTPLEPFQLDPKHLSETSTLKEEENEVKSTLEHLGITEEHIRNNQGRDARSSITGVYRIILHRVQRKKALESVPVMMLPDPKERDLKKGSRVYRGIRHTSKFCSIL

[16] = molecular target: Tyrosine-protein kinase SYK (Homo sapiens) (UniProt P43405); settings: Compound concentration 1000.0 nM
[17] = molecular target: MAP kinase-activated protein kinase 5 (Homo sapiens) (UniProt Q8IW41); settings: Compound concentration 1000.0 nM
MAP kinase-activated protein kinase 5 (Homo sapiens), sequence (Q8IW41 whole entry): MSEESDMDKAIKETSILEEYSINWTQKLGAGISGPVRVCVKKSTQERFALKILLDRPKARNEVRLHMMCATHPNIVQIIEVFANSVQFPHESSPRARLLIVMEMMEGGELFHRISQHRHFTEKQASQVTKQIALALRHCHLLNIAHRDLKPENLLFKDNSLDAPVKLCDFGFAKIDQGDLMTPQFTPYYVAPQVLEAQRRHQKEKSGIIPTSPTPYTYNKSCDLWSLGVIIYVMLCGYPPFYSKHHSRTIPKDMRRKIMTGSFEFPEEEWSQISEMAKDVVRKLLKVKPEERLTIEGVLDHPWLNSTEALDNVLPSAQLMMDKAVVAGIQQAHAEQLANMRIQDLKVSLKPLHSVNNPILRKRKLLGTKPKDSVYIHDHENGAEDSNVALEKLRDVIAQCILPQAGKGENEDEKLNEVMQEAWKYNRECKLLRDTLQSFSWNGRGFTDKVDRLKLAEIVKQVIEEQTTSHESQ

[18] = molecular target: T4, Adenosine receptor A2b (Homo sapiens) (UniProt P29275); test: A2B (h) Eurofins-Cerep Cellular and Nuclear Receptor Functional Assays; settings: Compound concentration 10.0 uM
T4 sequence (whole entry): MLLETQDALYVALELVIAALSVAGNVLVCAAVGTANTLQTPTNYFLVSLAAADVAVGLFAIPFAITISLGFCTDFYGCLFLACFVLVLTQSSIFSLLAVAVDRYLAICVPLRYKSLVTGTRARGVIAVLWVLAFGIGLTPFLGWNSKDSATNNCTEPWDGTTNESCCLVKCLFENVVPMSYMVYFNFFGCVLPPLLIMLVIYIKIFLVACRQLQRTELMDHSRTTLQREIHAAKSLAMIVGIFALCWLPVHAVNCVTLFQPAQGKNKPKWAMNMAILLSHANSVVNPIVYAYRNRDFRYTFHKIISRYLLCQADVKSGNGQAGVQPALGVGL

[19] = molecular target: Dual specificity tyrosine-phosphorylation-regulated kinase 1A (Homo sapiens) (UniProt Q13627); settings: Compound concentration 1000.0 nM
[20] = molecular target: Serine/threonine-protein kinase Nek4 (Homo sapiens) (UniProt P51957); settings: Compound concentration 1000.0 nM

Compound	% Inhibition of Control Agonist Response (Mean n=2) [1]	% of Control Agonist Response (Mean n=2) [1]	residual activity [2]	residual activity [3]	residual activity [4]	residual activity [5]	residual activity [6]	residual activity [7]	inhibition [8]	residual activity [9]	residual activity [10]	residual activity [11]	residual activity [12]	inhibition [13]	IC50 [14]	residual activity [15]	residual activity [16]	residual activity [17]	% Inhibition of Control Agonist Response (Mean n=2) [18]	% of Control Agonist Response (Mean n=2) [18]	other results
O=C(N1CCS(=O)(=O)CC1)N1C[C@H](c2ccc(OC(F)(F)F)cc2)C[C@H](c2nc(C3CC3)no2)C1 [BAY-386]	18.8%	11.5%	100%	100%	89%	100%	92%	88%	17.1%	100%	100%	100%	100%	2.45%	0.01 µM (active)	93%	100%	94%	-0.3%	3.5%	residual activity [19]: 100%; residual activity [20]: 100%
Cc1noc([C@H]2C[C@@H](c3ccc(C(F)(F)F)cc3)CN(C(=O)N3CCS(=O)(=O)C3)C2)n1 [BAY-448]	4.3%	-0.4%	100%	100%	100%	100%	82%	100%	16.8%	100%	100%	100%	100%	-1.84%	> 10 µM (not active)	100%	96%	100%	-8.5%	1.5%	residual activity [19]: 100%; residual activity [20]: 82%
